The record followed here is patent US20260013502A1, “METHOD FOR TERMINATING COVER CROP GROWTH” (SUMITOMO CHEMICAL COMPANY, LIMITED, priority 2022, published 2026).

In assay [1] the test system is edible radish (Daikon Radish). Briefly: Example 8: greenhouse pot test, foliar application, termination of radish growth. The format is in vivo, Raphanus sativus. The conditions noted are these: for Dry matter weight: radish entire plant at growth termination, average of 3 pots; for Growth termination date / Date at the beginning of the onset of effect: epyrifenacil 25 g/ha applied 21 days after seeding, glyphosate-potassium salt 1,543 g/ha applied 15 days after seeding; for Date at the beginning of the onset of effect: visual change in leaf color in all 3 pots, day relative to application. On the procedure:
A plastic pot was filled with soil, and edible radish (Daikon Radish) was seeded and grown in a greenhouse. Fifteen days after seeding, RoundupPowerMax was diluted with water, and then the radish was subjected to foliar application from above using an automatic sprayer at a spray volume of 200 L/ha to achieve an application rate of 1,543 g/ha as glyphosate-potassium salt.
At the same time, the radish was similarly seeded in another plastic pot and grown. Twenty-one days after seeding, epyrifenacil emulsifiable concentrate (55 g/L) was diluted with water containing 1% (v/v) adjuvant Agri-Dex, and then the radish was subjected to foliar application from above using an automatic sprayer at a spray volume of 200 L/ha to achieve an application rate of 25 g/ha.
After application with the herbicide, the radish was grown in a greenhouse, and in case the growth was terminated, the entire plant was dug up at termination of the growth and the dry matter weight was measured. In this test, the growth was judged to be terminated when death of terminal and lateral buds was visually confirmed. The date at the beginning of the onset of effect, the growth termination date, and the dry matter weight at the time of growth termination are shown in Table 2. The onset of the effect was judged by visually observing the change in leaf color. Application with each herbicide was performed using three pots. The date at the beginning of the onset of effect and the growth termination date in the table were dates on which the onset of effect and growth termination were confirmed in all three pots, respectively. The dry matter weight was the average of the three pots.

The test system of assay [2] is cereal rye (Secale cereale). Briefly: Example 9: outdoor pot test, foliar application, termination of cereal rye growth. The format is in vivo. The note with it: glyphosate-potassium salt 1,543 g/ha; for Growth termination date / Date at the beginning of the onset of effect: cereal rye, outdoors, applied 24 days after seeding, epyrifenacil/saflufenacil 20 g/ha; for Growth termination date: death of terminal and lateral buds in all 7 pots; for Date at the beginning of the onset of effect: visual change in leaf color in all 7 pots, day relative to application; for Incremental dry matter weight: cereal rye above-ground parts, average dry matter weight at growth termination minus average untreated dry matter weight 24 days after seeding (7 pots), epyrifenacil 20 g/ha. The protocol: A plastic pot was filled with soil, and cereal rye (Secale cereale) was seeded and grown outdoors. Twenty-four days after seeding, RoundupPowerMax was diluted with water, and then the cereal rye was subjected to foliar application from above using an automatic sprayer at a spray volume of 200 L/ha to achieve an application rate of 1,543 g/ha as glyphosate-potassium salt.
At the same time, the cereal rye was similarly seeded in another plastic pot and grown. Twenty-four days after seeding, epyrifenacil emulsifiable concentrate (55 g/L) or saflufenacil suspension (341 g/L) was diluted with water containing 1% (v/v) adjuvant Agri-Dex, and then the cereal rye was subjected to foliar application from above using an automatic sprayer at a spray volume of 200 L/ha to achieve an application rate of 20 g/ha.
At the same time, the cereal rye was similarly seeded in another plastic pot and grown. Twenty-four days after seeding, the above-ground parts were harvested and the dry matter weight (hereinafter referred to as untreated dry matter weight) was measured.
(§1) The cereal rye applied with the herbicide was grown outdoors after application with the herbicide, and in case the growth was terminated, the above-ground parts were harvested at termination of the growth and the dry matter weight was measured. In this test, the growth was judged to be terminated when death of terminal and lateral buds was visually confirmed. The date at the beginning of the onset of effect, the growth termination date, and the dry matter weight at the time of growth termination are shown in Table 3. The onset of the effect was judged by visually observing the change in leaf color. Application with each herbicide was performed using seven pots. The date at the beginning of the onset of effect and the growth termination date in the table were dates on which the onset of effect and growth termination were confirmed in all seven pots, respectively. The incremental dry matter weight was the value calculated by the following formula (1).
Incremental dry matter weight=average dry matter weight at the time of growth termination−average untreated dry matter weight 24 days after seeding Formula (1): • Average dry matter weight at the time of growth termination: average value of dry matter weights of 7 pots at the time of growth termination • Average untreated dry matter weight 24 days after seeding: average value of untreated dry matter weights of 7 pots

Assay [3] has as its system edible radish (Daikon Radish). Briefly: Example 10: outdoor pot test, foliar application, termination of radish growth. The format is in vivo, Raphanus sativus. The note with it: outdoors, applied 24 days after seeding, epyrifenacil 20 g/ha, glyphosate-potassium salt 1,543 g/ha; for Growth termination date: death of terminal and lateral buds in all 7 pots; for Date at the beginning of the onset of effect: visual change in leaf color in all 7 pots, day relative to application. On the procedure: A plastic pot was filled with soil, and edible radish (Daikon Radish) was seeded and grown outdoors. Twenty-four days after seeding, RoundupPowerMax was diluted with water, and then the radish was subjected to foliar application from above using an automatic sprayer at a spray volume of 200 L/ha to achieve an application rate of 1, 543 g/ha as glyphosate-potassium salt.
At the same time, the radish was similarly seeded in another plastic pot and grown. Twenty-four days after seeding, epyrifenacil emulsifiable concentrate (55 g/L) was diluted with water containing […] adjuvant Agri-Dex, and then the radish was subjected to foliar application from above using an automatic sprayer at a spray volume of 200 L/ha to achieve an application rate of 20 g/ha.
At the same time, the radish was similarly seeded in another plastic pot and grown. Twenty-four days after seeding, the entire plant was dug up and the dry matter weight (hereinafter referred to as untreated dry matter weight) was measured.
as §1, with “radish” for “cereal rye”, “entire plant was dug up” for “above-ground parts were harvested”, “4.” for “3.”, “(2).” for “(1).”
Incremental dry matter weight=average dry matter weight at the time of growth termination−average untreated dry matter weight 24 days after seeding Formula (2): • Average dry matter weight at the time of growth termination: average value of dry matter weights of 7 pots at the time of growth termination • Average untreated dry matter weight 24 days after seeding: average value of untreated dry matter weights of 7 pots

[4] abbreviates: epyrifenacil 25 g/ha, glyphosate-potassium salt 1,543 g/ha.
[5] abbreviates: radish, greenhouse, death of terminal and lateral buds in all 3 pots.
Where [6] appears, read: listed as glyphosate-potassium salt.

SMILES strings stand for the structures. Several values for one entry are separate records, joined by “and”; a condition that tells them apart may be missing. Identical values can stand only once. Counter-ions that a name gives are not always drawn.

As for `CCOC(=O)COc1ncccc1Oc1cc(-n2c(=O)cc(C(F)(F)F)n(C)c2=O)c(F)cc1Cl` [Epyrifenacil, epyrifenacil], the Dry matter weight is 905 kg/ha in assay [1] (setting [4]) and “biomass was greater” in assay [1] (epyrifenacil 25 g/ha, glyphosate-potassium salt 1,543 g/ha, listed as epyrifenacil). Also, the Growth termination date in assay [1] (setting [5]) was 24 Days after Days after seeding; in assay [2] it was 7 Days after application and 7 Days Days after application; in assay [3], 7 Days after application and 7 Days after Days after application. Besides, the “Date at the beginning of the onset of effect” value is listed as “On the day of” in assay [1] (radish, greenhouse); “Day after” in assay [2]; “Day after” in assay [3].
With `O=C(O)CNCP(=O)(O)O` [Glyphosate-potassium salt, glyphosate-potassium salt], in assay [1] (setting [4]), the Dry matter weight is 360 kg/ha. In addition, the Growth termination date in assay [1] (setting [5]) is listed as 24 Days after Days after seeding; in assay [2] it was 21 Days Days after application; in assay [2] (setting [6]) it was 21 Days after application; in assay [3], “failed to terminate the growth”. Also, in assay [1] (radish, greenhouse, death of terminal and lateral buds in all 3 pots, epyrifenacil 25 g/ha, glyphosate-potassium salt 1,543 g/ha), the “Growth termination date (days after application)” value is reported as “seeding (9 days after application”. In addition, the “Date at the beginning of the onset of effect” value in assay [1] (radish, greenhouse) was 7 Days after Days after application; in assay [2], 7 Days after Days after application; in assay [3] it was 10 Days Days after application. For the same compound, the entries for the “Incremental dry matter weight” value in assay [2] and in assay [2] (setting [6]) were −42 Kg/ha and “reduced biomass”, respectively.
